This is an account of results in US20240316047A1, “INHIBITORS OF RNA HELICASE DHX9 AND USES THEREOF” (ACCENT THERAPEUTICS, INC., priority 2022, published 2024).

This assay addresses Human recombinant DHX9 protein (Homo sapiens (Human), UniProt Q08211). Description: DHX9 ATPase assay (ADP-Glo). Type of assay: biochemical. Particulars: for IC50: read-out: DHX9 Biochemical Inflection Point.

Sequence of Human recombinant DHX9 protein (Q08211 whole entry): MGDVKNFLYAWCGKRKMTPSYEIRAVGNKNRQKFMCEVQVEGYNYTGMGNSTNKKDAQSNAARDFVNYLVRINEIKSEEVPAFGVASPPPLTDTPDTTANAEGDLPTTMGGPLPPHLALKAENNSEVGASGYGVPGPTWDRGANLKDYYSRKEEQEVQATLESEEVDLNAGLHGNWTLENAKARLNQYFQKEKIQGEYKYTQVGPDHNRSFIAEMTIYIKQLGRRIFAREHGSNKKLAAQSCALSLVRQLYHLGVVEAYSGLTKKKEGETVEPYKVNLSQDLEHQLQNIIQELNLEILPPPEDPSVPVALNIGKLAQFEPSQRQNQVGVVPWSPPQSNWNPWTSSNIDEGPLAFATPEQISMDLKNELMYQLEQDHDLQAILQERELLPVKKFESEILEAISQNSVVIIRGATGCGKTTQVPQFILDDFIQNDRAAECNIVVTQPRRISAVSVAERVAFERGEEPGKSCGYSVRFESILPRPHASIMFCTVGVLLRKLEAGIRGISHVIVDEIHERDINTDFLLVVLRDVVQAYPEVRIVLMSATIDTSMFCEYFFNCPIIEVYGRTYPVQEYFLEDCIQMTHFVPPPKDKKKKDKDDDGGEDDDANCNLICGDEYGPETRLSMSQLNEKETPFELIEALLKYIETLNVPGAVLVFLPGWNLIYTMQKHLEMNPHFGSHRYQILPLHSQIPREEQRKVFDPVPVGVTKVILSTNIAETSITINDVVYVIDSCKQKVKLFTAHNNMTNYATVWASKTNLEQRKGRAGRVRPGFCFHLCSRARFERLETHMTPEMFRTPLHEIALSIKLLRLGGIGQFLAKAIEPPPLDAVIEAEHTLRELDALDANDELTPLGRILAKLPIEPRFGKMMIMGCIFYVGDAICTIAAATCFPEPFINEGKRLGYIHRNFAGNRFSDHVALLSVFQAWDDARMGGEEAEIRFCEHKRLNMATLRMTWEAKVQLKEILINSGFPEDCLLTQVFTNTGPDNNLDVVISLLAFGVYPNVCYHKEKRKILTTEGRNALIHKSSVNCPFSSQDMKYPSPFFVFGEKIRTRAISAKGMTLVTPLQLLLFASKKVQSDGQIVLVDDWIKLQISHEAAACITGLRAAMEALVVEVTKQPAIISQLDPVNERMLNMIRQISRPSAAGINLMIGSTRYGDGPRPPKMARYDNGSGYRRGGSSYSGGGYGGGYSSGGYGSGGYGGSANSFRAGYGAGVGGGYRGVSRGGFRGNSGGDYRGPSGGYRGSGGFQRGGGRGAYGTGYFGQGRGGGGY

With `Cc1sc(C(=O)Nc2cc(Cl)cc(NS(C)(=O)=O)c2)cc1-c1ccc(P(C)(C)=O)cn1` [Example 647], the “DHX9 Biochemical Max Inhibition” value turned out to be 72.9.
In the case of `CS(=O)(=O)Nc1cc(Cl)cc(NC(=O)c2cc(CO)n(-c3ncccc3OCc3cncc(F)c3)c2)c1` [Example 723], the “DHX9 Biochemical Max Inhibition” value came to 84.3 and the IC50 came out at 1.6 nM.
The matching figures for `Cc1ccc(C#N)cc1-n1cc(C(=O)Nc2cc(Br)cc(NS(C)(=O)=O)c2)cn1` [Example 53]: 52.2% and 1910 nM.
As to `CS(=O)(=O)Nc1cc(Cl)cc(NC(=O)c2cnn([C@H]3CCC[C@H]3c3ccccc3)c2)c1` (single isomer, unassigned) [Example 260], the “DHX9 Biochemical Max Inhibition” value was 50%.
On to `CC(C)(C)Oc1cnc(-c2cc(C(=O)Nc3cc(Cl)cc(NS(C)(=O)=O)c3)sc2CO)nc1` [Example 686], for which the “DHX9 Biochemical Max Inhibition” value worked out at 66.6 and the IC50 was 18.2 nM.
The corresponding values for `CN1CCN(c2ccc(-n3cc(C(=O)Nc4cc(Br)cc(NS(C)(=O)=O)c4)cn3)nc2)CC1=O` [Example 88] are 54.2% and 7.1 nM.
Regarding `CS(=O)(=O)Nc1cc(Cl)cc(NC(=O)c2cnn(-c3ncccc3C#N)c2)c1` [Example 46], the “DHX9 Biochemical Max Inhibition” value is 57.2% and the IC50 turned out to be 47.3 nM.
`CCc1cn2cc(C(=O)Nc3cc(Cl)cc(NS(C)(=O)=O)c3)ccc2n1` [Example 132]: the “DHX9 Biochemical Max Inhibition” value amounted to 55.1% and the IC50 was 295 nM.
Consider `Cc1cc(C(=O)Nc2cc(Cl)cc(NS(C)(=O)=O)c2)cn1-c1ncc(OC(C)(C)C)cn1` [Example 664], for which the “DHX9 Biochemical Max Inhibition” value was determined as 68.8 and the IC50 turned out to be 87.7 nM.
With `COC1CCN(c2ccc(-c3cc(C(=O)Nc4cc(Cl)cc(NS(C)(=O)=O)c4)cn3C)nc2)CC1` [Example 515, N-(3-chloro-5-methanesulfonamidophenyl)-5-[5-(4-methoxypiperidin-1-yl)pyridin-2-yl]-1-methyl-1H-pyrrole-3-carboxamide], the “DHX9 Biochemical Max Inhibition” value was found to be 73.9 and the IC50 was 1.6 nM.
The matching figures for `Cc1sc(C(=O)Nc2cc(Cl)cc(NS(C)(=O)=O)c2)cc1-c1ncc(N2CCC(C(F)(F)F)CC2)cc1F` [Example 481]: 62.1 and 204 nM.
Take `Cc1cccnc1-c1cc(C(=O)Nc2cc(Br)cc(NS(C)(=O)=O)c2)cn1C` [Example 84, N-(3-bromo-5-(methylsulfonamido)phenyl)-1-methyl-5-(3-methylpyridin-2-yl)-1H-pyrrole-3-carboxamide]: the “DHX9 Biochemical Max Inhibition” value amounted to 66.7% and the IC50 amounted to 10.1 nM.
`CCOc1cnc(-n2cc(C(=O)Nc3cc(Cl)cc(NS(C)(=O)=O)c3)cc2C)nc1` [Example 208]: the “DHX9 Biochemical Max Inhibition” value was determined as 79.9% and the IC50 stood at 15.5 nM.
Take `Cc1sc(C(=O)Nc2cc(Cl)cc(NS(C)(=O)=O)c2)cc1-c1ccc(N2CC(F)(F)C2)cn1` [Example 533]: the “DHX9 Biochemical Max Inhibition” value is 83.2 and the IC50 is 7.2 nM.
The matching figures for `CC(C)(C)OC(=O)N1CC(n2cc(C(=O)Nc3cc(Cl)cc(NS(C)(=O)=O)c3)cc2-c2ncc(F)cn2)C1` [Example 645]: 70.8 and 366 nM.
The matching figures for `Cc1cc(C(=O)Nc2cc(Cl)cc(NS(C)(=O)=O)c2)cn1-c1ncc(N2CCOCC2)cc1F` [Example 412]: 72.2 and 10.5 nM.
The corresponding values for `Cn1cc(C(=O)Nc2cc(Cl)cc(NS(C)(=O)=O)c2)cc1-c1ncc(N2CCC2)cn1` [Example 521] are 71.8 and 3.5 nM.
With `Cn1cc(C(=O)Nc2cc(Cl)cc(NS(C)(=O)=O)c2)cc1-c1ccc(N2CC(C)(F)C2)cn1` [Example 688], the “DHX9 Biochemical Max Inhibition” value was determined as 67.9 and the IC50 is 16.1 nM.
The corresponding values for `Cc1cccnc1-c1nc(C(=O)Nc2cc(Br)cc(NS(C)(=O)=O)c2)cn1C` [Example 96, N-(3-bromo-5-(methylsulfonamido)phenyl)-1-methyl-2-(3-methylpyridin-2-yl)-1H-imidazole-4-carboxamide] are 52.8% and 253 nM.
The matching figures for `CCc1sc(C(=O)Nc2cc(Cl)cc(NS(C)(=O)=O)c2)cc1-c1ncc(F)cc1F` [Example 588]: 67.7 and 103 nM.
The matching figures for `Cc1cc(N2CC(F)(F)C2)cnc1-n1cc(C(=O)Nc2cc(Cl)cc(NS(C)(=O)=O)c2)cc1C` [Example 419]: 78.6 and 18.6 nM.
On to `CN1CC(Oc2cnc(-c3cc(C(=O)Nc4cc(Cl)cc(NS(C)(=O)=O)c4)cn3C)c(F)c2)C1` [Example 611], for which the “DHX9 Biochemical Max Inhibition” value is given as 65.3 and the IC50 worked out at 3.8 nM.
The matching figures for `COCc1ccc(-c2cc(C(=O)Nc3cc(Cl)cc(NS(C)(=O)=O)c3)cn2C)nc1` [Example 574]: 80.6 and 7.5 nM.
`Cc1sc(C(=O)Nc2cc(Cl)cc(NS(C)(=O)=O)c2)cc1-c1ncc(OC2CNC2)cc1F` [Example 637]: the “DHX9 Biochemical Max Inhibition” value stood at 71.4 and the IC50 came out at 3.4 nM.
The matching figures for `Cc1cc(C(=O)Nc2cc(Cl)cc(NS(C)(=O)=O)c2)cn1-c1ccc(N2CCN(C)C(=O)C2)cn1` [Example 94]: 72.4% and 1.8 nM.
Turning to `CS(=O)(=O)Nc1cc(Cl)cc(NC(=O)c2cc3c(F)cccn3c2)c1` [Example 305], the “DHX9 Biochemical Max Inhibition” value is on record as 63.8% and the IC50 came out at 95.3 nM.
The matching figures for `Cc1sc(C(=O)Nc2cc(Cl)cc(NS(C)(=O)=O)c2)cc1-c1ncc(F)cc1OCc1cnco1` [Example 732]: 70.8 and 10.5 nM.
The matching figures for `CS(=O)(=O)Nc1cc(Cl)cc(NC(=O)c2cnn(-c3ccccc3Oc3cccc(F)c3)c2)c1` [Example 265]: 51.8% and 8050 nM.
The corresponding values for `CCS(=O)(=O)Nc1cc(Cl)cc(NC(=O)c2cc(-c3ncc(F)cc3C)cs2)c1` [Example 226] are 73.6% and 8.4 nM.
`CCS(=O)(=O)Nc1cc(Cl)cc(NC(=O)c2cc(-c3ncccc3C)cs2)c1` [Example 224]: the “DHX9 Biochemical Max Inhibition” value worked out at 67.3% and the IC50 is 6.4 nM.
The corresponding values for `CS(=O)(=O)Nc1cc(Cl)cc(NC(=O)c2cnn(-c3ncc(N4CCOCC4)cn3)c2)c1` [Example 394] are 73.7 and 24.8 nM.
Take `Cc1sc(C(=O)Nc2cc(Cl)cc(NS(C)(=O)=O)c2)cc1-c1c(F)cc(F)cc1F` [Example 378]: the “DHX9 Biochemical Max Inhibition” value is recorded as 80.9% and the IC50 amounted to 874 nM.
With `Cc1sc(C(=O)Nc2cc(Cl)cc(NS(C)(=O)=O)c2)cc1-c1nccn1CCc1ccccc1` [Example 698], the “DHX9 Biochemical Max Inhibition” value is recorded as 75.4 and the IC50 was 1050 nM.
The matching figures for `Cc1cc(C(=O)Nc2cc(Cl)cc(NS(C)(=O)=O)c2)cn1-c1ncc(N2CC(F)(F)C2)cc1C(F)(F)F` [Example 407]: 105 and 203 nM.
On to `CS(=O)(=O)Nc1cc(Cl)cc(NC(=O)c2cc(-c3ncccc3NC(=O)C3CC3)cs2)c1` [Example 220], for which the “DHX9 Biochemical Max Inhibition” value turned out to be 79.7% and the IC50 is 16 nM.
Turning to `CS(=O)(=O)Nc1cc(Cl)cc(NC(=O)c2cnn(-c3ncccc3OCc3ccc(F)cc3)c2)c1` [Example 69], the “DHX9 Biochemical Max Inhibition” value was found to be 62.3% and the IC50 is 113 nM.
The matching figures for `CS(=O)(=O)Nc1cc(Cl)cc(NC(=O)c2cc3ccc(Cl)cn3c2)c1` [Example 299]: 56.7% and 335 nM.
`CS(=O)(=O)Nc1cc(Cl)cc(NC(=O)c2cc(-c3ncc(F)cc3OCc3cncc(F)c3)cs2)c1` [Example 225]: the “DHX9 Biochemical Max Inhibition” value stood at 74.2% and the IC50 worked out at 6.9 nM.
For `Cc1sc(C(=O)Nc2cc(Cl)cc(NS(C)(=O)=O)c2)cc1-c1ccc(C#N)cn1` [Example 377], the “DHX9 Biochemical Max Inhibition” value turned out to be 70.6% and the IC50 was 21.2 nM.
The corresponding values for `Cc1cc(F)cnc1-c1cc(C(=O)Nc2cc(Cl)cc(NS(C)(=O)=O)c2)cn1C` [Example 545] are 64.7 and 74.2 nM.
With `Cc1sc(C(=O)Nc2cc(Cl)cc(NS(C)(=O)=O)c2)cc1-c1ncc(N2CC(C(F)(F)F)C2)cn1` [Example 489], the “DHX9 Biochemical Max Inhibition” value came to 68.7 and the IC50 came to 29.9 nM.
The matching figures for `Cn1cc(C(=O)Nc2cc(Cl)cc(NS(C)(=O)=O)c2)cc1-c1ccc(N2CC(CS(C)(=O)=O)C2)cn1` [Example 695]: 69.7 and 8.5 nM.
In the case of `CS(=O)(=O)Nc1cc(Cl)cc(NC(=O)c2cnn(-c3ncccc3OCc3cn[nH]c3)c2)c1` [Example 206], the “DHX9 Biochemical Max Inhibition” value came out at 74.9% and the IC50 is 16.8 nM.
The corresponding values for `COc1cnn(-c2csc(C(=O)Nc3cc(Cl)cc(NS(C)(=O)=O)c3)c2)c1` [Example 435] are 79.1 and 8.7 nM.
The matching figures for `CCn1nc(C(=O)Nc2cc(F)cc(NS(C)(=O)=O)c2)cc1C` [Example 119, 1-ethyl-N-(3-fluoro-5-(methylsulfonamido)phenyl)-5-methyl-1H-pyrazole-3-carboxamide]: 82.1% and 1160 nM.
The matching figures for `Cc1sc(C(=O)Nc2cc(F)cc(NS(C)(=O)=O)c2)cc1-c1ncc(N2CC(C(F)(F)F)C2)cc1F` [Example 501]: 73.3 and 70.9 nM.
For `Cc1ncc(OCc2cc(F)cc(F)c2)c(-c2cc(C(=O)Nc3cc(Cl)cc(NS(C)(=O)=O)c3)cn2C)n1` [Example 734], the “DHX9 Biochemical Max Inhibition” value was 71.2 and the IC50 was found to be 6.6 nM.
Consider `Cc1cc(C(=O)Nc2cc(Cl)cc(NS(C)(=O)=O)c2)cn1-c1ccc(N2CC3(COC3)C2)cn1` [Example 276], for which the “DHX9 Biochemical Max Inhibition” value was 73.8% and the IC50 amounted to 4.7 nM.
